Source: article PMC3914206

Key:
panel of 442 kinases [1] = target: T1, panel of 442 kinases (Homo sapiens, UniProt O94806); assay type: binding; parameters: KINOMEscan: ABL1(F317L)-phosphorylated / KINOMEscan: ABL1(H396P)-nonphosphorylated / KINOMEscan: ABL1(H396P)-phosphorylated / KINOMEscan: ABL1(M351T)-phosphorylated / KINOMEscan: ABL1(T315I)-phosphorylated / KINOMEscan: ABL1-nonphosphorylated / KINOMEscan: ABL1-phosphorylated / KINOMEscan: ACVR2A / KINOMEscan: ACVR2B / KINOMEscan: ADCK3 / KINOMEscan: ADCK4 / KINOMEscan: AKT1 / KINOMEscan: AKT3 / KINOMEscan: ALK / KINOMEscan: ARK5 / KINOMEscan: AURKA / KINOMEscan: AURKC / KINOMEscan: BIKE / KINOMEscan: BMPR1A / KINOMEscan: BMPR1B / KINOMEscan: BMX / KINOMEscan: BRK / KINOMEscan: BRSK1 / KINOMEscan: BRSK2 / KINOMEscan: CAMK1 / KINOMEscan: CAMK1D / KINOMEscan: CAMK1G / KINOMEscan: CAMK2A / KINOMEscan: CAMK2B / KINOMEscan: AAK1 / KINOMEscan: CAMK2D / KINOMEscan: CAMK2G / KINOMEscan: ABL1(F317I)-nonphosphorylated / KINOMEscan: ABL1(F317I)-phosphorylated / KINOMEscan: ABL1(F317L)-nonphosphorylated: unit: % Ctrl; settings: Compound Concentration 10 µM
T1 construct: purchased KINOMEscan
T1 sequence (O94806 1-890): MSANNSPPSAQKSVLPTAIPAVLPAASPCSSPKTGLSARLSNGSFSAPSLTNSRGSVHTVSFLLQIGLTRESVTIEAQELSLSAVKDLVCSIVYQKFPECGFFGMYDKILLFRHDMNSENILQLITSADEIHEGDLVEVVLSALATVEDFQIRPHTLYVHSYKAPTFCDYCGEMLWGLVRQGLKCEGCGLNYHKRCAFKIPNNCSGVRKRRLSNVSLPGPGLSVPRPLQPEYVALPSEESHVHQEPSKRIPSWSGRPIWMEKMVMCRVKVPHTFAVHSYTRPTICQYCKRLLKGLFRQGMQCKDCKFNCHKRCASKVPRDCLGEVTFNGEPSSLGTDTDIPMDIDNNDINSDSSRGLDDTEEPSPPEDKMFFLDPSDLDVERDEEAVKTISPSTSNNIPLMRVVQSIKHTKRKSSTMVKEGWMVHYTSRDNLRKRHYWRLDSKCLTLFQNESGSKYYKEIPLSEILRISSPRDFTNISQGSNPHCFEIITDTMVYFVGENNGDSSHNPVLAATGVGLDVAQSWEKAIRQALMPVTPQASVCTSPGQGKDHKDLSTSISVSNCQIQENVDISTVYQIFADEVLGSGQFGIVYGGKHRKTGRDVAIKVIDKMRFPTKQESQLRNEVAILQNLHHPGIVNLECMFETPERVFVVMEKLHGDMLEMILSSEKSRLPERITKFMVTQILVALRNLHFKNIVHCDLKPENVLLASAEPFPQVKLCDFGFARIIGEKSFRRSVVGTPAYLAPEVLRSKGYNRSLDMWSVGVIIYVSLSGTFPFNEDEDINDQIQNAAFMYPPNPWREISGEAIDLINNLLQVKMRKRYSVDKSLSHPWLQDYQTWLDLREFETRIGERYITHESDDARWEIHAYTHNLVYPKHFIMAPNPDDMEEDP
Description: (§1) We assessed the selectivity of members of this scaffold using the KINOMEscan methodology across a near comprehensive panel of 442 kinases [[18,27]].

panel of 442 kinases [2] = target: T2, panel of 442 kinases (Homo sapiens, UniProt Q96D53); assay type: binding; parameters: KINOMEscan: ABL1(F317L)-phosphorylated / KINOMEscan: ABL1(H396P)-nonphosphorylated / KINOMEscan: ABL1(H396P)-phosphorylated / KINOMEscan: ABL1(M351T)-phosphorylated / KINOMEscan: ABL1(T315I)-phosphorylated / KINOMEscan: ABL1-nonphosphorylated / KINOMEscan: ABL1-phosphorylated / KINOMEscan: ACVR2A / KINOMEscan: ACVR2B / KINOMEscan: ADCK3 / KINOMEscan: ADCK4 / KINOMEscan: AKT1 / KINOMEscan: AKT3 / KINOMEscan: ALK / KINOMEscan: ARK5 / KINOMEscan: AURKA / KINOMEscan: AURKC / KINOMEscan: BIKE / KINOMEscan: BMPR1A / KINOMEscan: BMPR1B / KINOMEscan: BMX / KINOMEscan: BRK / KINOMEscan: BRSK1 / KINOMEscan: BRSK2 / KINOMEscan: CAMK1 / KINOMEscan: CAMK1D / KINOMEscan: CAMK1G / KINOMEscan: CAMK2A / KINOMEscan: CAMK2B / KINOMEscan: AAK1 / KINOMEscan: CAMK2D / KINOMEscan: CAMK2G / KINOMEscan: ABL1(F317I)-nonphosphorylated / KINOMEscan: ABL1(F317I)-phosphorylated / KINOMEscan: ABL1(F317L)-nonphosphorylated: unit: % Ctrl; settings: Compound Concentration 10 µM
T2 construct: purchased KINOMEscan
T2 sequence (Q96D53 1-544): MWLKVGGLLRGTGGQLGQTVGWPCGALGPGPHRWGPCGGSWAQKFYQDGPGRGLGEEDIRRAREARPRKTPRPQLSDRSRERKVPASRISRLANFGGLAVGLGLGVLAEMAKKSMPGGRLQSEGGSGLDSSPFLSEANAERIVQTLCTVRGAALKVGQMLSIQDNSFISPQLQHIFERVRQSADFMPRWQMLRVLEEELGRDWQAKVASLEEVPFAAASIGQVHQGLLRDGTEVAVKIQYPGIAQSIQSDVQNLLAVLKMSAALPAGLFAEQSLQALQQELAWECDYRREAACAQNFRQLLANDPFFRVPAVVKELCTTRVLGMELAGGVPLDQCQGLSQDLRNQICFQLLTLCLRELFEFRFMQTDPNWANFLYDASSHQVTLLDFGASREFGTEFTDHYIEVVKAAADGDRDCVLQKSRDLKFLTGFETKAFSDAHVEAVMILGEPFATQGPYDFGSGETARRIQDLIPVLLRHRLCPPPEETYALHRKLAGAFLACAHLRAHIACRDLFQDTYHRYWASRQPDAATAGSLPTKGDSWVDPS
Description: as §1

Row | SMILES | KINOMEscan: PRKD3 (panel of 442 kinases [1]) | KINOMEscan: ADCK4 (panel of 442 kinases [2])
1 | COc1cc(C(=O)N2CCC(N3CCN(C)CC3)CC2)ccc1Nc1ncc2c(n1)N(C)c1ccccc1C(=O)N2C [15 (LRRK2-IN-1)] | 42 | 94
2 | COc1cc(C(=O)N2CCC(N3CCN(C)CC3)CC2)ccc1Nc1ncc2c(n1)N1CCc3cccc(c31)C(=O)N2C [Compound 24] | 19 | 81
3 | COc1cc(C(=O)N2CCC(N3CCN(C)CC3)CC2)ccc1Nc1ncc2c(n1)N(C1CCCC1)c1ccccc1C(=O)N2C [Compound 25, 11-cyclopentyl-2-((2-methoxy-4-(4-(4-methylpiperazin-1-yl)piperidine-1-carbonyl)phenyl)amino)-5-methyl-5H-benzo[e]pyrimido[5,4-b][1,4]diazepin-6(11H)-one] | 100 | 92
4 | CCOc1cc(C(=O)N2CCC(N3CCN(C)CC3)CC2)ccc1Nc1ncc2c(n1)N(C1CCCC1)c1ccccc1C(=O)N2C [Compound 26] | 100 | 100
